Assay results published in article PMC9917201, “Enhanced Antibacterial Activity of Substituted Derivatives of NCR169C Peptide” (International Journal of Molecular Sciences, 2023).
Non-standard residues stand in square brackets, D forms with d. Residues, ends and D or L forms follow the SMILES beside them. ξ: configuration not given here. ξTrp(6-F) = NC(Cc1c[nH]c2cc(F)ccc12)C(=O)O; ξTrp(7-aza) = NC(Cc1c[nH]c2ncccc12)C(=O)O

How the values were obtained:
S. aureus (ATCC 25923) = type: cell-based, Staphylococcus aureus; details: ATCC 25923, 3 h, pH 7.4
Description: (§1) The bacterial strains for the antimicrobial assay were obtained from the ATCC (American Type Culture Collection, Manassas, VA, USA) and NCTC (National Collection of Type Cultures, Salisbury, UK). Gram-negative strains were Pseudomonas aeruginosa (ATCC 27853), Escherichia coli (ATCC 8739, ATCC 35218, and ATCC 25922), Salmonella enterica (ATCC 13076), Klebsiella pneumoniae (NCTC 13440), Acinetobacter baumannii (ATCC 17978) and the Gram-positive strains were Enterococcus faecalis (ATCC 29212), Listeria monocytogenes (ATCC 19111), and Staphylococcus aureus (HNCMO112011 and ATCC 25923).
(§2) Determination of antibacterial activity for the peptides was carried out by utilizing a minimum bactericidal concentration (MBC) bioassay. Synthesized peptides were dissolved in sterile water and used from 25 to 0.125 μM in 2-fold dilution series and incubated with ~10^7 log phase bacteria in Potassium-Phosphate Buffer (PPB, pH: 7.4) for three hours as described earlier. After that, 5 μl of each sample was placed on LB agar and the growth of bacteria was monitored after overnight incubation at 37 °C. The lowest concentration of the antimicrobial agents that completely eliminated viable bacteria was considered the minimal bactericidal concentration (MBC).

[1] = system: Staphylococcus aureus (HNCMO112011); type: cell-based; details: HNCMO112011, 3 h, pH 7.4
Description: as §1, §2

[2] = system: Listeria monocytogenes (ATCC 19111); type: cell-based; details: ATCC 19111, 3 h, pH 7.4
Description: as §1, §2

[3] = system: Enterococcus faecalis (ATCC 29212); type: cell-based; details: ATCC 29212, 3 h, pH 7.4
Description: as §1, §2

[4] = system: tested bacteria (ESKAPE pathogens, Listeria monocytogenes, Salmonella enterica); type: cell-based; details: 3 h, pH 7.4
Description: as §1, §2

[5] = system: Salmonella enterica (ATCC 13076); type: cell-based; details: ATCC 13076, 3 h, pH 7.4
Description: as §1, §2

[6] = system: Klebsiella pneumoniae (NCTC 13440); type: cell-based; details: NCTC 13440, 3 h, pH 7.4
Description: as §1, §2

[7] = system: Pseudomonas aeruginosa (ATCC 27853); type: cell-based; details: ATCC 27853, 3 h, pH 7.4
Description: as §1, §2

[8] = system: Escherichia coli (ATCC 8739); type: cell-based; details: ATCC 8739, 3 h, pH 7.4
Description: as §1, §2

[9] = system: Acinetobacter baumannii (ATCC 17978); type: cell-based; details: ATCC 17978, 3 h, pH 7.4
Description: as §1, §2

E. coli (ATCC 25922) = type: cell-based, Escherichia coli; details: ATCC 25922, 3 h, pH 7.4
Description: as §1, §2

E. coli (ATCC 35218) = type: cell-based, Escherichia coli; details: ATCC 35218, 3 h, pH 7.4
Description: as §1, §2

CC[C@H](C)[C@H](NC(=O)[C@H](CCCCN)NC(=O)[C@H](Cc1ccccc1)NC(=O)[C@H](CC(C)C)NC(=O)[C@@H]1CCCN1C(=O)[C@H](CCCCN)NC(=O)[C@H](CCCCN)NC(=O)[C@H](CO)NC(=O)[C@@H](N)CCCCN)C(=O)NC(Cc1c[nH]c2cc(F)ccc12)C(=O)N[C@@H](CCCCN)C(=O)N[C@@H](CO)C(=O)N[C@H](C(=O)N[C@@H](CCC(=O)O)C(=O)N[C@@H](CC(N)=O)C(=O)N[C@H](C(=O)N[C@@H](CO)C(=O)N[C@H](C(=O)N[C@@H](CC(C)C)C(=O)N[C@@H](Cc1c[nH]c2ccccc12)C(=O)N[C@@H](Cc1ccc(O)cc1)C(=O)N[C@@H](CCCCN)C(N)=O)C(C)C)C(C)C)C(C)C (stereo partly drawn) [NCR169C17–38C12,17/S-10W^6-F II] (H-KSKKPLFKI[ξTrp(6-F)]KSVENVSVLWYK-NH2; N-terminus assumed)
6.3 µM: Minimal bactericidal concentration (MBC) S. e. [5]
1.6 µM: MBC S.a. ATTC 25923 (S. aureus (ATCC 25923)) | Minimal bactericidal concentration (MBC) L. m. [2] | Minimal bactericidal concentration (MBC) K. p. [6] | Minimal bactericidal concentration (MBC) P. a. [7]
0.8 µM: Minimal bactericidal concentration (MBC) S. a. [1] | Minimal bactericidal concentration (MBC) E. f. [3] | Minimal bactericidal concentration (MBC) E. c. [8] | Minimal bactericidal concentration (MBC) A. b. [9] | MBC E.c. ATTC 25922 (E. coli (ATCC 25922)) | MBC E.c. ATTC 35218 (E. coli (ATCC 35218))
0.8 to 1.6 µM: MBC against most or all of the tested bacteria [4]

CC[C@H](C)[C@H](NC(=O)[C@H](CCCCN)NC(=O)[C@H](Cc1ccccc1)NC(=O)[C@H](CC(C)C)NC(=O)[C@@H]1CCCN1C(=O)[C@H](CCCCN)NC(=O)[C@H](CCCCN)NC(=O)[C@H](CO)NC(=O)[C@@H](N)CCCCN)C(=O)NC(Cc1c[nH]c2cc(F)ccc12)C(=O)N[C@@H](CCCCN)C(=O)N[C@@H](CO)C(=O)N[C@H](C(=O)N[C@@H](CCC(=O)O)C(=O)N[C@@H](CC(N)=O)C(=O)N[C@H](C(=O)N[C@@H](CO)C(=O)N[C@H](C(=O)N[C@@H](CC(C)C)C(=O)N[C@@H](Cc1c[nH]c2ccccc12)C(=O)N[C@@H](Cc1ccc(O)cc1)C(=O)N[C@@H](CCCCN)C(N)=O)C(C)C)C(C)C)C(C)C (stereo partly drawn) [NCR169C17–38C12,17/S-10W^6-F I] (H-KSKKPLFKI[ξTrp(6-F)]KSVENVSVLWYK-NH2; N-terminus assumed)
1.6 µM: MBC S.a. ATTC 25923 (S. aureus (ATCC 25923)) | Minimal bactericidal concentration (MBC) L. m. [2] | Minimal bactericidal concentration (MBC) E. f. [3] | Minimal bactericidal concentration (MBC) S. e. [5] | Minimal bactericidal concentration (MBC) K. p. [6] | Minimal bactericidal concentration (MBC) A. b. [9]
0.8 to 1.6 µM: MBC against most or all of the tested bacteria [4]
0.8 µM: Minimal bactericidal concentration (MBC) S. a. [1] | Minimal bactericidal concentration (MBC) P. a. [7] | Minimal bactericidal concentration (MBC) E. c. [8] | MBC E.c. ATTC 25922 (E. coli (ATCC 25922)) | MBC E.c. ATTC 35218 (E. coli (ATCC 35218))

CC[C@H](C)[C@H](NC(=O)[C@H](CCCCN)NC(=O)[C@H](Cc1ccccc1)NC(=O)[C@H](CC(C)C)NC(=O)[C@@H]1CCCN1C(=O)[C@H](CCCCN)NC(=O)[C@H](CCCCN)NC(=O)[C@H](CO)NC(=O)[C@@H](N)CCCCN)C(=O)N[C@@H](Cc1c[nH]c2ccccc12)C(=O)N[C@@H](CCCCN)C(=O)N[C@@H](CO)C(=O)N[C@H](C(=O)N[C@@H](CCC(=O)O)C(=O)N[C@@H](CC(N)=O)C(=O)N[C@H](C(=O)N[C@@H](CO)C(=O)N[C@H](C(=O)N[C@@H](CC(C)C)C(=O)NC(Cc1c[nH]c2ncccc12)C(=O)N[C@@H](Cc1ccc(O)cc1)C(=O)N[C@@H](CCCCN)C(N)=O)C(C)C)C(C)C)C(C)C (stereo partly drawn) [NCR169C17–38C12,17/S-20W^7-Aza II] (H-KSKKPLFKIWKSVENVSVL[ξTrp(7-aza)]YK-NH2; N-terminus assumed)
12.5 µM: Minimal bactericidal concentration (MBC) S. a. [1] | Minimal bactericidal concentration (MBC) L. m. [2] | Minimal bactericidal concentration (MBC) E. f. [3] | MBC against most or all of the tested bacteria [4] | Minimal bactericidal concentration (MBC) S. e. [5] | Minimal bactericidal concentration (MBC) K. p. [6] | Minimal bactericidal concentration (MBC) P. a. [7] | Minimal bactericidal concentration (MBC) E. c. [8] | Minimal bactericidal concentration (MBC) A. b. [9]
